Structures can show the parent of a compound that is named as a salt. Some results are limits rather than exact numbers.

Broadly, the melting point is the temperature of the solid-liquid transition. In turn, `CCOC(COc1nc(N)nc2c1ncn2[C@@H]1O[C@H](CO[P@@]2(=O)OCC[C@@H](c3cccc(Cl)c3)O2)[C@H]2OC(=O)O[C@]21C)OCC` [Compound 149, 2(R)-(2-Amino-6-(2,2-diethoxyethoxy)-9(H)-purinyl)-4(R)-(4(S)-(3-chlorophenyl)-2-oxo-1,3,2-dioxaphosphorinan-2(R)-yloxymethyl)-1(R)-methyl-7-oxo-3,6,8-trioxa-cis-bicyclo[3.3.0]octane] had a melting point of 72 to 75 °C.
The compound `CCOc1nc(N)nc2c1ncn2[C@@H]1O[C@H](CO[P@@]2(=O)OCC[C@@H](c3cccc(Cl)c3)O2)[C@@H](OC(=O)C(C)C)[C@@]1(C)O` (as salt: trifluoroacetate) [Compound 185, 2(R)-(2-Amino-6-ethoxy-9(H)-purinyl)-5(R)-(4(S)-(3-chlorophenyl)-2-oxo-1,3,2-dioxaphosphorinan-2(R)-yloxymethyl)-3(R)-hydroxy-3(R)-methyl-4(R)-isobutyryloxy-tetrahydrofuran] registered a melting point of 162 to 165 °C.
`CCOc1nc(N)nc2c1ncn2[C@@H]1O[C@H](CO[P@@]2(=O)OCC[C@@H](c3cccc(Br)c3)O2)[C@H]2OC(=O)O[C@]21C` [Compound 123, 2(R)-(2-Amino-6-ethoxy-9(H)-purinyl)-4(R)-(4(S)-(3-bromophenyl)-2-oxo-1,3,2-dioxaphosphorinan-2(R)-yloxymethyl)-1(R)-methyl-7-oxo-3,6,8-trioxa-cis-bicyclo[3.3.0]octane] displayed a melting point of 77 to 80 °C.
As to `CC(C)(C)COc1nc(N)nc2c1ncn2[C@@H]1O[C@H](CO[P@@]2(=O)OCC[C@@H](c3cccc(Cl)c3)O2)[C@H]2OC(=O)O[C@]21C` [Compound 147, 2(R)-(2-Amino-6-(2,2-dimethylpropyloxy)-9(H)-purinyl)-4(R)-(4(S)-(3-chlorophenyl)-2-oxo-1,3,2-dioxaphosphorinan-2(R)-yloxymethyl)-1(R)-methyl-7-oxo-3,6,8-trioxa-cis-bicyclo[3.3.0]octane], the melting point fell in the range of 88 to 91 °C.
For the compound `COc1nc(N)nc2c1ncn2[C@@H]1O[C@H](CO[P@@]2(=O)OCC[C@@H](c3cccc(Cl)c3)O2)[C@H]2OC(=O)O[C@]21C` [Compound 119, 2(R)-(2-Amino-6-methoxy-9(H)-purinyl)-4(R)-(4(S)-(3-chlorophenyl)-2-oxo-1,3,2-dioxaphosphorinan-2(R)-yloxymethyl)-1(R)-methyl-7-oxo-3,6,8-trioxa-cis-bicyclo[3.3.0]octane], the melting point is 125 to 130 °C.
The compound `C[C@@]12OC(=O)O[C@@H]1[C@@H](CO[P@@]1(=O)OCC[C@@H](c3cccc(Cl)c3)O1)O[C@H]2n1cnc2c(OCC3CC4CCC3C4)nc(N)nc21` (stereo partly drawn) [Compound 139, 2(R)-(2-Amino-6-(2-bicyclo[2.2.1]heptanylmethoxy)-9(H)-purinyl)-4(R)-(4(S)-(3-chlorophenyl)-2-oxo-1,3,2-dioxaphosphorinan-2(R)-yloxymethyl)-1(R)-methyl-7-oxo-3,6,8-trioxa-cis-bicyclo[3.3.0]octane] came in with a melting point of 99 to 101 °C.
On to `C[C@@]12OC(=O)O[C@@H]1[C@@H](CO[P@@]1(=O)OCC[C@@H](c3cccc(Cl)c3)O1)O[C@H]2n1cnc2c(O)nc(N)nc21` [Compound 106, 2(R)-(2-Amino-6-hydroxy-9 (H)-purinyl)-4(R)-(4(S)-(3-chlorophenyl)-2-oxo-1,3,2-dioxaphosphorinan-2(R)-yloxymethyl)-1(R)-methyl-7-oxo-3,6,8-trioxa-cis-bicyclo[3.3.0]octane], for which the melting point was above 200 °C.
`C[C@@]12OC(=O)O[C@@H]1[C@@H](CO[P@@]1(=O)OCC[C@@H](c3cccc(Cl)c3)O1)O[C@H]2n1cnc2c(OCC3CCCCC3)nc(N)nc21` [Compound 146, 2(R)-(2-Amino-6-cyclohexylmethoxy-9(H)-purinyl)-4(R)-(4(S)-(3-chlorophenyl)-2-oxo-1,3,2-dioxaphosphorinan-2(R)-yloxymethyl)-1(R)-methyl-7-oxo-3,6,8-trioxa-cis-bicyclo[3.3.0]octane] yielded a melting point of 101 to 103 °C.
With `CC(C)[C@H](N)C(=O)O[C@@H]1[C@@H](CO[P@@]2(=O)OCC[C@@H](c3cccc(Cl)c3)O2)O[C@@H](n2cnc3c(O)nc(N)nc32)[C@]1(C)O` (as salt: trifluoroacetate) [Compound 118, 2(R)-(2-Amino-6-hydroxy-9 (H)-purinyl)-5(R)-(4(S)-(3-chlorophenyl)-2-oxo-1,3,2-dioxaphosphorinan-2(R)-yloxymethyl)-3(R)-hydroxy-3(R)-methyl-4(R)-L-valinyl-tetrahydrofuran] the figure was above 210 °C.
Consider `CCOc1nc(N)nc2c1ncn2[C@@H]1O[C@H](CO[P@@]2(=O)OCC[C@@H](c3cc(F)cc(F)c3)O2)[C@H]2OC(=O)O[C@]21C` [Compound 126, 2(R)-(2-Amino-6-ethoxy-9(H)-purinyl)-4(R)-(4(S)-(3,5-difluorophenyl)-2-oxo-1,3,2-dioxaphosphorinan-2(R)-yloxymethyl)-1(R)-methyl-7-oxo-3,6,8-trioxa-cis-bicyclo[3.3.0]octane], for which the melting point lay in the range of 96 to 98 °C.
Compound `C[C@@]12OC(=O)O[C@@H]1[C@@H](CO[P@@]1(=O)OCC[C@@H](c3cccc(Cl)c3)O1)O[C@H]2n1cnc2c(OCC3CCOCC3)nc(N)nc21` [Compound 129, 2(R)-(2-Amino-6-(4-tetrahydropyranylmethoxy)-9(H)-purinyl)-4(R)-(4(S)-(3-chlorophenyl)-2-oxo-1,3,2-dioxaphosphorinan-2(R)-yloxymethyl)-1(R)-methyl-7-oxo-3,6,8-trioxa-cis-bicyclo[3.3.0]octane] registered a melting point of 105 to 108 °C.
As to `CSCCCOc1nc(N)nc2c1ncn2[C@@H]1O[C@H](CO[P@@]2(=O)OCC[C@@H](c3cccc(Cl)c3)O2)[C@H]2OC(=O)O[C@]21C` [Compound 130, 2(R)-(2-Amino-6-(3-methylthiopropyloxy)-9(H)-purinyl)-4(R)-(4(S)-(3-chlorophenyl)-2-oxo-1,3,2-dioxaphosphorinan-2(R)-yloxymethyl)-1(R)-methyl-7-oxo-3,6,8-trioxa-cis-bicyclo[3.3.0]octane], the melting point lay within 79 to 82 °C.
With `C[C@@]12OC(=O)O[C@@H]1[C@@H](CO[P@@]1(=O)OCC[C@@H](c3cccc(Cl)c3)O1)O[C@H]2n1cnc2c(OC3CCCC3)nc(N)nc21` [Compound 125, 2(R)-(2-Amino-6-cyclopentyloxy-9(H)-purinyl)-4(R)-(4(S)-(3-chlorophenyl)-2-oxo-1,3,2-dioxaphosphorinan-2(R)-yloxymethyl)-1(R)-methyl-7-oxo-3,6,8-trioxa-cis-bicyclo[3.3.0]octane] the figure was 107 to 109 °C; with `CC(C)C(=O)O[C@@H]1[C@@H](CO[P@@]2(=O)OCC[C@@H](c3cccc(Cl)c3)O2)O[C@@H](n2cnc3c(O)nc(N)nc32)[C@]1(C)O` [Compound 117, 2(R)-(2-Amino-6-hydroxy-9(H)-purinyl)-5(R)-(4(S)-(3-chlorophenyl)-2-oxo-1,3,2-dioxaphosphorinan-2(R)-yloxymethyl)-3(R)-hydroxy-3(R)-methyl-4(R)-(2-methyl-1-oxopropoxy)-tetrahydrofuran], above 200 °C.
